Results on 9 molecules are retold here after patent publication EP0326331B1, “Substituted quinolines and cinnolines” (Dow AgroSciences LLC, priority 1988, dated 1989).

Structures are written as SMILES. Where two headings read alike, the source gives them in different places.

Holding throughout (type): in vivo
In experiment [1] the test system is Twospotted spider mites (Tetranychus urticae Koch). As to the kind of experiment: Mite/insect screen, SM. Conditions: Tetranychus urticae, percent mortality, read-out: SM RESULTS %; for mortality at 400 ppm: rate 400 ppm. The procedure, abridged:
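Compounds dissolved in 50:50 acetone/alcohol containing sulfonate/nonionic emulsifier blends, then diluted with water to the indicated concentrations. Leaves sprayed on both surfaces to runoff at 10 psi and dried one hour. Percent mortality scored after standard exposure periods.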

For experiment [2], the system named is Erysiphe graminis tritici (powdery mildew). The experiment can be described thus: Test 1 greenhouse foliar spray screen, powdery mildew on wheat. To be noted: for POWD MDEW: disease control rating, foliar spray on wheat, 400 ppm (+++ at 100 ppm); for pest or weed control at 400 ppm: Blumeria graminis, foliar, Test 1, foliar spray on wheat, disease control rating at 400 ppm / 100 ppm, read-out: POWD MDEW.

The test system of experiment [3] is Pseudoperonospora cubensis (downy mildew). As to the kind of experiment: Test 1 greenhouse foliar spray screen, downy mildew on squash. Conditions: for DOWN MDEW: disease control rating, foliar spray on squash, 400 ppm (+++ at 100 ppm); for pest or weed control at 400 ppm: Pseudoperonospora cubensis, foliar, Test 1, foliar spray on squash, disease control rating at 400 ppm / 100 ppm, read-out: DOWN MDEW.

The subject of another experiment is corn rootworm. The experiment can be described thus: Mite/insect screen, CRW. Conditions: percent mortality, read-out: CRW RESULTS %; for mortality at 24 ppm: CRW rate 24.00 ppm. The essentials:
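Compounds dissolved in 50:50 acetone/alcohol with TOXIMUL R and S emulsifiers (23 and 13 g/L), then diluted in water to the stated test concentrations. Percent mortality of corn rootworm scored after standard exposure periods.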

The subject of experiment [4] is Botrytis cinerea (gray mold). The experiment can be described thus: Test 1 greenhouse foliar spray screen, gray mold on grape berries. Conditions: for GRAY MOLD: disease control rating, spray on grape berries, 400 ppm (+++ at 100 ppm); for pest or weed control at 400 ppm: Botrytis cinerea, foliar, Test 1, spray on grape berries, disease control rating at 400 ppm / 100 ppm.

In experiment [5] the test system is Septoria tritici (leaf blotch). The experiment can be described thus: Test 1 greenhouse foliar spray screen, leaf blotch on wheat. To be noted: disease control rating, foliar spray on wheat, 400 ppm (+++ at 100 ppm).
For experiment [6], the system named is Puccinia recondita tritici (leaf rust). The experiment can be described thus: Test 1 greenhouse foliar spray screen, leaf rust on wheat. To be noted: for LEAF RUST: disease control rating, foliar spray on wheat, 400 ppm (+++ at 100 ppm); for pest or weed control at 400 ppm: Puccinia recondita, foliar, Test 1, foliar spray on wheat, disease control rating at 400 ppm / 100 ppm.

In experiment [7] the test system is Venturia inaequalis (apple scab). The experiment can be described thus: Test 1 greenhouse foliar spray screen, apple scab on apple seedling. Conditions: disease control rating, foliar spray on apple seedling, 400 ppm (+++ at 100 ppm).
Experiment [8] has as its system southern armyworm (Spodopetra eridania Cramer). The experiment can be described thus: Mite/insect screen, SAW. Conditions: Spodoptera eridania, percent mortality, read-out: SAW RESULTS %; for mortality at 400 ppm: rate 400 ppm. The essentials: (§1)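 Compounds dissolved in acetone/alcohol (50:50) with TOXIMUL R and S emulsifiers, diluted in water to test concentrations, and sprayed to runoff on both leaf surfaces at 10 psi, then dried 1 h. For armyworm, excised treated leaves were offered to larvae; percent mortality scored after standard exposure periods.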

For experiment [9], the system named is melon aphids (Aphis gossypii Glover). The experiment can be described thus: Mite/insect screen, MA. Conditions: Aphis gossypii, percent mortality, read-out: MA RESULTS %; for mortality at 400 ppm: rate 400 ppm. The procedure, abridged:
as §1

For experiment [10], the system named is Pyricularia oryzae (rice blast). The experiment can be described thus: whole plant or invertebrate. Conditions: for RICE BLAST: disease control rating, foliar spray on rice, 400 ppm (+++ at 100 ppm); for pest or weed control at 400 ppm: Pyricularia oryzae, foliar, read-out: RICE BLAST, Test 1, foliar spray on rice, disease control rating at 400 ppm / 100 ppm.

Setting [11] is: foliar, rate 200 ppm, foliar spray on squash.

In the case of `COc1ccc2nccc(NCCc3ccccc3)c2c1` [Example 1, 6-methoxy-N-(2-phenylethyl)-4-quinolineamine], the mortality at 200 ppm in experiment [1] (SAW, SM & MA RATE 200 PPM) amounted to 0%; in experiment [8] (SAW, SM & MA RATE 200 PPM) it was 0%; in experiment [9] (SAW, SM & MA RATE 200 PPM) it was 0%. Besides, in experiment [2], the “POWD MDEW” value is “+ (20-89% control at 400 ppm)”. For the same molecule, in experiment [3], the “DOWN MDEW” value is recorded as “++ (90-100% control at 400 ppm)”. The mortality at 12 ppm with corn rootworm (CRW RATE 12.00 PPM) was 0%. Moreover, in experiment [4], the “GRAY MOLD” value is “+ (20-89% control at 400 ppm)”. For the same molecule, the “LEAF BLOT” value in [5] was “- (0-19% control at 400 ppm)”. Also, the “LEAF RUST” value in [6] is “+ (20-89% control at 400 ppm)”. In addition, the “APPL SCAB” value in experiment [7] is recorded as “- (0-19% control at 400 ppm)”. In addition, in experiment [10], the “RICE BLAST” value is “+ (20-89% control at 400 ppm)”.

On to `CCc1ccc2nccc(NCCc3ccccc3)c2c1` [Example 3, 6-ethyl-N-(2-phenylethyl)-4-quinolinamine], for which the mortality at 200 ppm in experiment [1] (SAW, SM & MA RATE 200 PPM) is 0%; in [8] (SAW, SM & MA RATE 200 PPM) it was 0%; in [9] (SAW, SM & MA RATE 200 PPM) it was 0%. The “POWD MDEW” value in experiment [2] is “- (0-19% control at 400 ppm)”. Further, the “DOWN MDEW” value in experiment [3] is reported as “+++ (90-100% control at 100 ppm)”. In the experiment with corn rootworm (CRW RATE 12.00 PPM), the mortality at 12 ppm was 0%. Besides, in experiment [4], the “GRAY MOLD” value is reported as “- (0-19% control at 400 ppm)”. Moreover, the “LEAF BLOT” value in experiment [5] is reported as “- (0-19% control at 400 ppm)”. In addition, in experiment [6], the “LEAF RUST” value is “+ (20-89% control at 400 ppm)”. Also, in [7], the “APPL SCAB” value was “- (0-19% control at 400 ppm)”. Also, the “RICE BLAST” value in experiment [10] is reported as “++ (90-100% control at 400 ppm)”.

As to `CCN(CCc1ccccc1)c1ccnc2ccccc12` [Example 4, N-ethyl-N-(2-phenylethyl)-4-quinolinamine], the mortality at 200 ppm in experiment [1] (SAW, SM & MA RATE 200 PPM) worked out at 0%; in experiment [8] (SAW, SM & MA RATE 200 PPM), 0%; in experiment [9] (SAW, SM & MA RATE 200 PPM) it was 0%. The “POWD MDEW” value in experiment [2] is listed as “+ (20-89% control at 400 ppm)”. In addition, the “DOWN MDEW” value in [3] is “++ (90-100% control at 400 ppm)”. Besides, the mortality at 12 ppm in the experiment on corn rootworm (CRW RATE 12.00 PPM) came out at 0%. Also, the “GRAY MOLD” value in experiment [4] was “- (0-19% control at 400 ppm)”. In experiment [5], the “LEAF BLOT” value is reported as “- (0-19% control at 400 ppm)”. The “LEAF RUST” value in [6] was “++ (90-100% control at 400 ppm)”. In addition, the “APPL SCAB” value in experiment [7] is “- (0-19% control at 400 ppm)”. Also, the “RICE BLAST” value in experiment [10] was “+ (20-89% control at 400 ppm)”.

Turning to `COc1ccc2nc(C)cc(NCCc3cccc(Oc4ccccc4)c3)c2c1` [Example 290, 6-methoxy-2-methyl-N-[2-(3-phenoxyphenyl)ethyl]-4-quinolinamine], the mortality at 200 ppm is 80% in experiment [1] (setting [11]), 0% in [8] (setting [11]) and 80% in experiment [9] (setting [11]). Also, the mortality at 400 ppm in [1] (foliar, foliar spray on squash) was found to be 0%; in experiment [8] (foliar, foliar spray on squash), 0%; in [9] (foliar, foliar spray on squash), 0%. Also, the pest or weed control at 400 ppm lay within 0 to 19% in [2]; 90 to 100% in experiment [3]; 0 to 19% in experiment [4]; 20 to 89% in [6]; 90 to 100% in experiment [10]. Besides, the mortality at 12 ppm in the experiment on corn rootworm (CRW rate 12.00 ppm) is 0%. The mortality at 24 ppm with corn rootworm was found to be 0%.

With `Fc1cccc2c(NCCc3ccc(OCc4ccccc4)cc3)ccnc12` [Example 291, 8-fluoro-N-[2-[4-(phenylmethoxy)phenyl]ethyl]-4-quinolinamine], the mortality at 200 ppm in experiment [1] (setting [11]) is 0%; in experiment [8] (setting [11]) it was 0%; in [9] (setting [11]), 100%. Moreover, the mortality at 400 ppm amounted to 0% in [1] (foliar, foliar spray on squash); 0% in [8] (foliar, foliar spray on squash); 0% in [9] (foliar, foliar spray on squash). Also, the pest or weed control at 400 ppm in experiment [2] was 90 to 100%; in [3] it was 90 to 100%; in [4] it was 0 to 19%; in experiment [6] it was 90 to 100%; in experiment [10], 90 to 100%. Besides, in the experiment on corn rootworm (CRW rate 12.00 ppm), the mortality at 12 ppm turned out to be 0%. Besides, the mortality at 24 ppm with corn rootworm was determined as 0%.

With `Fc1ccc2c(OCCOc3ccc(Br)cc3)ccnc2c1` [Example 292, 7-fluoro-4-[2-(4-bromophenoxy)ethoxy]quinoline], the mortality at 200 ppm amounted to 0% in experiment [1] (setting [11]), 0% in experiment [8] (setting [11]) and 30% in experiment [9] (setting [11]). Moreover, the mortality at 400 ppm in experiment [1] (foliar, foliar spray on squash) amounted to 0%; in [8] (foliar, foliar spray on squash), 0%; in [9] (foliar, foliar spray on squash), 0%. For the same molecule, the pest or weed control at 400 ppm in experiment [2], in experiment [3], in experiment [4], in [6] and in experiment [10] was 0 to 19% each time. In addition, the mortality at 12 ppm in the experiment on corn rootworm (CRW rate 12.00 ppm) turned out to be 0%. Also, the mortality at 24 ppm in the experiment on corn rootworm is 0%.

In the case of `Oc1ccc(CCNc2ccnc3c(F)cccc23)cc1` [Example 293, N-[2-(4-hydroxyphenyl)ethyl]-8-fluoro-4-quinoline], the mortality at 200 ppm in experiment [1] (setting [11]), in experiment [8] (setting [11]) and in experiment [9] (setting [11]) was 0% each time. Further, the mortality at 400 ppm in experiment [1] (foliar, foliar spray on squash) turned out to be 0%; in experiment [8] (foliar, foliar spray on squash), 0%; in [9] (foliar, foliar spray on squash) it was 0%. The pest or weed control at 400 ppm in [2] was in the range of 0 to 19%; in experiment [3] it was 0 to 19%; in experiment [4], 0 to 19%; in experiment [6] it was 90 to 100%; in experiment [10], 0 to 19%. For the same molecule, in the experiment on corn rootworm (CRW rate 12.00 ppm), the mortality at 12 ppm is 0%. For the same molecule, in the experiment with corn rootworm, the mortality at 24 ppm stood at 0%.

`Fc1cccc2c(OCCCc3cccc(C(F)(F)F)c3)ccnc12` [Example 294, 8-fluoro-4-[3-[3-(trifluoromethyl)phenyl]propoxy]quinoline]: the mortality at 200 ppm in [1] (setting [11]), in [8] (setting [11]) and in experiment [9] (setting [11]) was 0% throughout. Besides, the mortality at 400 ppm in experiment [1] (foliar, foliar spray on squash) came out at 0%; in experiment [8] (foliar, foliar spray on squash) it was 0%; in experiment [9] (foliar, foliar spray on squash), 0%. Moreover, the pest or weed control at 400 ppm in [2], in experiment [3], in experiment [4], in [6] and in [10] was 0 to 19% throughout. Also, the mortality at 12 ppm in the experiment with corn rootworm (CRW rate 12.00 ppm) worked out at 0%. Also, in the experiment with corn rootworm, the mortality at 24 ppm was 0%.

As to `Fc1cccc2c(OC3CCCCC3c3ccccc3)ccnc12` (stereo not drawn) [Example 295, 8-fluoro-4-(2-phenylcyclohexyloxy)quinoline], the mortality at 200 ppm in [1] (setting [11]), in [8] (setting [11]) and in [9] (setting [11]) was 0% throughout. Besides, the mortality at 400 ppm was 0% in experiment [1] (foliar, foliar spray on squash); 0% in [8] (foliar, foliar spray on squash); 0% in experiment [9] (foliar, foliar spray on squash). In addition, the pest or weed control at 400 ppm was in the range of 20 to 89% in [2]; 90 to 100% in [3]; 0 to 19% in [4]; 20 to 89% in experiment [6]; 20 to 89% in [10]. Also, the mortality at 12 ppm with corn rootworm (CRW rate 12.00 ppm) turned out to be 0%. The mortality at 24 ppm with corn rootworm is 0%.
